Experimental findings from ChEMBL document CHEMBL4425105, “Discovery of (S)-1-(1-(4-Chloro-3-fluorophenyl)-2-hydroxyethyl)-4-(2-((1-methyl-1H-pyrazol-5-yl)amino)pyrimidin-4-yl)pyridin-2(1H)-one (GDC-0994), an Extracellular Signal-Regulated Kinase 1/2 (ERK1/2) Inhibitor in Early Clinical Development” (J Med Chem, 2016) are described below.

Broadly, the IC50 is the point on the concentration scale where inhibition reaches its midpoint. A word on the bioavailability: it is the share of a dose that reaches the circulation, judged against a reference dose that is usually intravenous. One may read the inhibition in vivo as the relative decrease from the control value, in per cent. As usually defined, the fraction unbound is free concentration divided by total concentration.

Series [1] has as its target Mitogen-activated protein kinase 3 (Homo sapiens, UniProt P27361).
Description: Inhibition of ERK1 (unknown origin)
Series [2] concerns the target Mitogen-activated protein kinase 1 (Homo sapiens, UniProt P28482).
Description: Inhibition of ERK2 (unknown origin)
The test system of another series is Cytochrome P450. As to the kind of experiment: Inhibition of CYP450 (unknown origin). Format: ADME, protein assay. As to conditions: human; call rule not given here.
A further series concerns the target Cytochrome P450 3A4 (Homo sapiens, UniProt P08684).
A short description of another series: in vivo. The settings on record: CD-1, mouse, po.
The subject of a further series is HCT-116. As to the kind of experiment: Antitumor activity against human HCT116 cells xenografted in mouse assessed as tumor growth inhibition at 7.5 mg/kg, po qd measured after 21 days relative to vehicle-control. As to conditions: HCT-116, po, 504 h. Type of series: functional. For orientation: Xenograft models place foreign cells or tissue in a host animal.
Series [3] is described as follows: Drug metabolism in human hepatocytes assessed as formation of 3-(4-(1-((S)-1-(4-chloro-3-fluorophenyl)-2-hydroxyethyl)-2-oxo-1,2-dihydropyridin-4-yl)pyrimidin-2-ylamino)-5-hydroxypentanoic acid measured after 3 hrs by LC-MS/MS analysis. Format: ADME, cell-based, Hepatocyte.
Series [4] in a line: Drug metabolism in mouse hepatocytes assessed as formation of 3-(4-(1-((S)-1-(4-chloro-3-fluorophenyl)-2-hydroxyethyl)-2-oxo-1,2-dihydropyridin-4-yl)pyrimidin-2-ylamino)-5-hydroxypentanoic acid measured after 3 hrs by LC-MS/MS analysis. Type of series: ADME, cell-based, Hepatocyte.
The nature of series [5]: Drug metabolism in dog hepatocytes assessed as formation of 3-(4-(1-((S)-1-(4-chloro-3-fluorophenyl)-2-hydroxyethyl)-2-oxo-1,2-dihydropyridin-4-yl)pyrimidin-2-ylamino)-5-hydroxypentanoic acid measured after 3 hrs by LC-MS/MS analysis. Format: ADME, cell-based, Canis lupus familiaris, Hepatocyte.
Series [6] is described as follows: Drug metabolism in rat hepatocytes assessed as formation of 3-(4-(1-((S)-1-(4-chloro-3-fluorophenyl)-2-hydroxyethyl)-2-oxo-1,2-dihydropyridin-4-yl)pyrimidin-2-ylamino)-5-hydroxypentanoic acid measured after 3 hrs by LC-MS/MS analysis. Type of series: ADME, cell-based, Hepatocyte.
Series [7] is described as follows: Drug metabolism in cynomolgus monkey hepatocytes assessed as formation of 3-(4-(1-((S)-1-(4-chloro-3-fluorophenyl)-2-hydroxyethyl)-2-oxo-1,2-dihydropyridin-4-yl)pyrimidin-2-ylamino)-5-hydroxypentanoic acid measured after 3 hrs by LC/MS analysis. Format: ADME, cell-based, Macaca fascicularis, Hepatocyte.
The nature of series [8]: Permeability from apical to basolateral side of MDCK cells. Format: ADME, cell-based, Canis lupus familiaris. The settings on record: dog, read-out: permeability.
Series [9] can be described thus: Fraction unbound in mouse plasma. Type of series: ADME, cell-free.
The subject of series [10] is Mus musculus. As to the kind of experiment: T>IC50 for inhibition of p90RSK phosphorylation in CD-1 mouse at 10 mg/kg, po.
The species entered for series [11] is Mus musculus.
Description: In vivo inhibition of p90RSK phosphorylation in mouse xenografted with human HTC116 cells assessed as total plasma concentration required for efficacy
The nature of series [12]: Drug level in human hepatocytes treated with (S)-1-(1-(4-chloro-3-fluorophenyl)-2-hydroxyethyl)-4-(2-(tetrahydro-2H-pyran-4-ylamino)pyrimidin-4-yl)pyridin-2(1H)-one measured after 3 hrs by LC/MS analysis. Type of series: ADME, cell-based, Hepatocyte.
A short description of series [13]: Drug level in mouse hepatocytes treated with (S)-1-(1-(4-chloro-3-fluorophenyl)-2-hydroxyethyl)-4-(2-(tetrahydro-2H-pyran-4-ylamino)pyrimidin-4-yl)pyridin-2(1H)-one measured after 3 hrs by LC/MS analysis. Type of series: ADME, cell-based, Hepatocyte.
A short description of series [14]: Drug level in dog hepatocytes treated with (S)-1-(1-(4-chloro-3-fluorophenyl)-2-hydroxyethyl)-4-(2-(tetrahydro-2H-pyran-4-ylamino)pyrimidin-4-yl)pyridin-2(1H)-one measured after 3 hrs by LC/MS analysis. Type of series: ADME, cell-based, Canis lupus familiaris, Hepatocyte.
Series [15] is described as follows: Drug level in rat hepatocytes treated with (S)-1-(1-(4-chloro-3-fluorophenyl)-2-hydroxyethyl)-4-(2-(tetrahydro-2H-pyran-4-ylamino)pyrimidin-4-yl)pyridin-2(1H)-one measured after 3 hrs by LC/MS analysis. Type of series: ADME, cell-based, Hepatocyte.
Series [16] is described as follows: Drug level in cynomolgus monkey hepatocytes treated with (S)-1-(1-(4-chloro-3-fluorophenyl)-2-hydroxyethyl)-4-(2-(tetrahydro-2H-pyran-4-ylamino)pyrimidin-4-yl)pyridin-2(1H)-one measured after 3 hrs by LC/MS analysis. Type of series: ADME, cell-based, Macaca fascicularis, Hepatocyte.

Chain of Mitogen-activated protein kinase 3 (P27361 whole entry): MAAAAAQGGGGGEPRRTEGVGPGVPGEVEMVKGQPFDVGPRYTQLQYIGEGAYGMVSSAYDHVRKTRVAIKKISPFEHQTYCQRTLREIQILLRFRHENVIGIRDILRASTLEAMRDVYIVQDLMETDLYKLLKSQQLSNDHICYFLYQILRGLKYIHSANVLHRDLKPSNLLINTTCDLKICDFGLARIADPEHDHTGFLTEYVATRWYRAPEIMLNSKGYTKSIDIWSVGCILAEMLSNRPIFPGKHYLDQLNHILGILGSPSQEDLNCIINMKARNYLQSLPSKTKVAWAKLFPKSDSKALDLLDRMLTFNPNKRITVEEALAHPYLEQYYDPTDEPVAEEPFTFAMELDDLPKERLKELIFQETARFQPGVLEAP
Chain of Mitogen-activated protein kinase 1 (P28482 whole entry): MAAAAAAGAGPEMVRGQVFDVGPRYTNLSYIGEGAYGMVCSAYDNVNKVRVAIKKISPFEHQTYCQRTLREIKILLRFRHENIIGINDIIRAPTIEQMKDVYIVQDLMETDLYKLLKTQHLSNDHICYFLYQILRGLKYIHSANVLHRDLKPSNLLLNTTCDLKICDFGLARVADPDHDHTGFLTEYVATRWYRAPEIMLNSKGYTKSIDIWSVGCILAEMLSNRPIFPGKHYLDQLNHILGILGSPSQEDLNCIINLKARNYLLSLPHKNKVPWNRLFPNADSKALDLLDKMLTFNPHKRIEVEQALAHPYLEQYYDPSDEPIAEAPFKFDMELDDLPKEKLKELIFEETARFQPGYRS
Chain of Cytochrome P450 3A4 (P08684 whole entry): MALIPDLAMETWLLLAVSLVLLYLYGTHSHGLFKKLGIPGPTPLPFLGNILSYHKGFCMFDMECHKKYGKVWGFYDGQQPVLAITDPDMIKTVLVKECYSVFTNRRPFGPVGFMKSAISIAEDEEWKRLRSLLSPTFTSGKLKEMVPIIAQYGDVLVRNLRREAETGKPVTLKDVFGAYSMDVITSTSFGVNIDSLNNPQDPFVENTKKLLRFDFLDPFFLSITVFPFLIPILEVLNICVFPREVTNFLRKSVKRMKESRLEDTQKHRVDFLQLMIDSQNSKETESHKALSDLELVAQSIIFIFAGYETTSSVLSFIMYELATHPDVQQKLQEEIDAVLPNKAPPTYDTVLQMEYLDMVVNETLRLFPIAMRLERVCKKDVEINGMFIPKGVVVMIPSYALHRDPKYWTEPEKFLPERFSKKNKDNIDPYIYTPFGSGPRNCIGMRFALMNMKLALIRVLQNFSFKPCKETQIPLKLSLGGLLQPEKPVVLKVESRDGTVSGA
Description for Cytochrome P450 3A4: Inhibition of CYP3A4 (unknown origin)
Description for in vivo: Oral bioavailability in CD-1 mouse

As for `Cn1ccc(Nc2nccc(-c3ccn([C@H](CO)c4ccc(Cl)c(F)c4)c(=O)c3)n2)n1`, the 50% inhibitory concentration (IC50) came to 85 nM in series [1] and 37 nM in series [2].
For `CCc1nn(C)cc1Nc1nccc(-c2ccn([C@H](CO)c3ccc(Cl)c(F)c3)c(=O)c2)n1`, the “inhibition (INH)” value with Cytochrome P450 is reported as “Not Active”. The IC50 is 43 nM in [1] and 23 nM in [2].
`Cc1cc(Nc2nccc(-c3ccn([C@H](CO)c4ccc(Cl)c(F)c4)c(=O)c3)n2)n(C)n1`: the IC50 in [1] is 20 nM.
As to `CCn1nc(C)cc1Nc1nccc(-c2ccn([C@H](CO)c3ccc(Cl)c(F)c3)c(=O)c2)n1`, the results for the IC50 in series [1] and in [2] were 150 nM and 89 nM, respectively.
Turning to `Cc1cc(Nc2nccc(-c3ccn([C@H](CO)c4ccc(Cl)c(F)c4)c(=O)c3)n2)ccn1`, the values for the IC50 (against Cytochrome P450 3A4; in series [1]; in series [2]) were 340 nM, 3.9 nM and 0.94 nM, respectively.
As to `Cc1nn(C)cc1Nc1nccc(-c2ccn([C@H](CO)c3ccc(Cl)c(F)c3)c(=O)c2)n1`, in the series with Cytochrome P450, the “inhibition (INH)” value is on record as “Not Active”. The same compound yielded a half-inhibitory concentration (IC50) in series [1] of 13 nM. Also, the bioavailability in “in vivo” stood at 95%.
In the case of `Cn1cc(Nc2nccc(-c3ccn([C@H](CO)c4ccc(Cl)c(F)c4)c(=O)c3)n2)c(C(F)(F)F)n1`, the “inhibition (INH)” value with Cytochrome P450 is listed as “Not Active”. For the same compound, the IC50 was 550 nM in [1] and 290 nM in series [2].
Regarding `Cn1nc(C(F)(F)F)cc1Nc1nccc(-c2ccn([C@H](CO)c3ccc(Cl)c(F)c3)c(=O)c2)n1`, the IC50 in series [1] came out at 74 nM; in series [2], 52 nM.
With `O=C(c1ccc(F)c(F)c1Nc1ccc(I)cc1F)N1CC(O)([C@@H]2CCCCN2)C1` [COBIMETINIB], the inhibition in vivo at 7.5 mg/kg in the series with HCT-116 came out at 58%.
Turning to `O=c1cc(-c2ccnc(NC3CCOCC3)n2)ccn1[C@H](CO)c1ccc(Cl)c(F)c1`, the Drug metabolism result in series [3], in [4], in [5], in series [6] and in series [7] was “Metabolite_Detected” in each case. Moreover, the Papp A→B in [8] is 3.9 ×10⁻⁶ cm/s. This compound registered a fraction unbound in [9] of 0.058. Besides, in the series on Mus musculus [10], the Time came out at 8 h. Further, the Cp in the series listed under Mus musculus [11] was determined as 200 nM.
With `CCn1cc(Nc2nccc(-c3ccn([C@H](CO)c4ccc(Cl)c(F)c4)c(=O)c3)n2)c(C)n1`, the “inhibition (INH)” value in the series on Cytochrome P450 is listed as “Not Active”. This compound also registered an IC50 in series [1] of 18 nM.
For the compound `Cc1c(Nc2nccc(-c3ccn([C@H](CO)c4ccc(Cl)c(F)c4)c(=O)c3)n2)cnn1C`, the “inhibition (INH)” value in the series with Cytochrome P450 is “Not Active”. Further, the IC50 in series [1] came out at 62 nM; in series [2], 29 nM.
For the compound `CC(C)n1cc(Nc2nccc(-c3ccn([C@H](CO)c4ccc(Cl)c(F)c4)c(=O)c3)n2)cn1`, in the series on Cytochrome P450, the “inhibition (INH)” value was “Not Active”. Further, the IC50 was 19 nM in [1] and 10 nM in series [2].
Regarding `O=C(O)CC(CCO)Nc1nccc(-c2ccn([C@H](CO)c3ccc(Cl)c(F)c3)c(=O)c2)n1` (some centres not stated), the Drug metabolism entry in series [12], in series [13], in [14], in series [15] and in series [16] was “Metabolite_Detected” in each case.
`CCc1cc(Nc2nccc(-c3ccn([C@H](CO)c4ccc(Cl)c(F)c4)c(=O)c3)n2)n(C)n1`: the IC50 turned out to be 27 nM in series [1] and 17 nM in [2].
For `Cc1n[nH]cc1Nc1nccc(-c2ccn([C@H](CO)c3ccc(Cl)c(F)c3)c(=O)c2)n1`, the “inhibition (INH)” value with Cytochrome P450 is given as “Not Active”. In addition, the IC50 worked out at 3.8 nM in [1] and 0.9 nM in [2].
Taken in the same sequence, the figures for `CCn1cc(Nc2nccc(-c3ccn([C@H](CO)c4ccc(Cl)c(F)c4)c(=O)c3)n2)cn1` were “Not Active”, 5 nM and 1.8 nM.
`O=c1cc(-c2ccnc(Nc3cc[nH]n3)n2)ccn1[C@H](CO)c1ccc(Cl)c(F)c1`: the IC50 in series [1] was determined as 9610 nM; in series [2] it was 5650 nM.
`CCn1nccc1Nc1nccc(-c2ccn([C@H](CO)c3ccc(Cl)c(F)c3)c(=O)c2)n1`: the IC50 in series [1] was 26 nM; in series [2], 16 nM.
`Cc1n[nH]c(C)c1Nc1nccc(-c2ccn([C@H](CO)c3ccc(Cl)c(F)c3)c(=O)c2)n1`: the “inhibition (INH)” value in the series with Cytochrome P450 is listed as “Not Active”. Further, the IC50 in series [1] worked out at 510 nM; in series [2], 240 nM.
Consider `Cc1cnn(C)c1Nc1nccc(-c2ccn([C@H](CO)c3ccc(Cl)c(F)c3)c(=O)c2)n1`, for which the IC50 stood at 1070 nM in series [1] and 490 nM in series [2].
Regarding `Cn1cc(Nc2nccc(-c3ccn([C@H](CO)c4ccc(Cl)c(F)c4)c(=O)c3)n2)cn1`, in the series on Cytochrome P450, the “inhibition (INH)” value was “Not Active”. The IC50 came out at 7.9 nM in [1] and 4.1 nM in series [2].
